Reference: US20050037402A1, “Device and process for direct quantitative in vitro determination of a substance that is contained in a sample” (priority 2003, published 2005)
Each block holds one molecule with its values, some of them ahead of it.

Tests used:
[1] = in DMSO; cited from earlier work
[2] = Photophysical characterization of dye-antibody complexes (spectral shifts, fluorescence quantum yields); format: physicochemical; settings: for Absorption Maximum (nm) / Fluorescence Maximum (nm) / Fluorescence Quantum Yield (%): 1 μmol/l dye, 2.4 μmol/l antibody in PBS; for Absorption Maximum (nm) / Fluorescence Maximum (nm): 2 hours at room temperature; for Fluorescence Quantum Yield (%): relative to indocyanine green
Method: Dye-antibody complexes based on antibodies with binding to the indotricarbocyanine dye trisodium-3,3-dimethyl-2-{4-methyl-7-[3,3-dimethyl-5-sulfonato-1-(2-sulfonatoethyl)-3H-indolium-2-yl]hepta-2,4,6-trien-1-ylidene}-1-(2-sulfonatoethyl)-2,3-dihydro-1H-indole-5-sulfonate, inner salt, were examined (see Example 1). Solutions of the concentration of 1 μmol/l of the above-mentioned dye and 2.4 μmol/l of the respective antibody in PBS were produced and incubated for 2 hours at room temperature. The absorption maxima were determined with a spectral photometer (Perkin-Elmer, Lambda2). The fluorescence maxima and fluorescence quantum yields were determined with a SPEX fluorolog (wavelength-dependent sensitivity calibrated by lamp and detector) relative to indocyanine green (Q=0.13 in DMSO, J Chem Eng Data 1977, 22, 379, Bioconjugate Chem 2001, 12, 44). From the absorption and fluorescence maxima, the spectral shifts were calculated relative to the maxima of a solution of the above-mentioned dye without antibodies in PBS (1 μmol/l) (absorption max. 754 nm, fluorescence max. 783 nm, fluorescence quantum yield 10%).

[3] = bound by 12-mer peptides; cited from earlier work
[4] = Inhibition-ELISA for binding of the unconjugated dye by selected HuCAL GOLD Fab fragments
Method: The purified and concentrated phagemids of the HuCAL GOLD antibody library were used in a standard selection process. As antigens, BSA- or transferrin-coupled ZK203468 were used alternately. The antigens were taken up in PBS and applied at concentrations of 50 μg/ml on Maxisorp™ microtiter plates F96 (Nunc). The maxisorp plates were incubated overnight at 4° C. (“coating”). After the maxisorp plates were blocked with 5% milk powder in PBS, about 2E+13 HuCAL GOLD phages were added to the antigen-loaded, blocked-off spots and incubated there overnight or for two hours at room temperature. After several washing steps, which became more stringent with progressive selection rounds, bonded phages were eluted with 20 mmol of DTT or 100 μmol of unconjugated ZK203468. Altogether, three successive selection rounds were carried out, whereby the phage amplification was carried out between the selection rounds, as described above.
Several thousand clones were isolated after the selection and sub-cloning and tested by means of ELISA in 384-well format for specific detection of the antigens ZK203468-BSA and—transferrin used in panning. Clones identified in this connection were studied in an inhibition-ELISA for efficient binding of the unconjugated dye.

[5] = dye without antibodies in PBS (1 μmol/l)
[6] = relative to the dye without antibodies in PBS (1 μmol/l)

Molecule: CC1(C)C(/C=C/C=C/C=C/C=C2\N(CCCCS(=O)(=O)O)c3ccc4ccccc4c3C2(C)C)=[N+](CCCCS(=O)(=O)[O-])c2ccc3ccccc3c21 [indocyanine green]
- fluorescence quantum yield Q [1]: 0.13

- Absorption Maximum (nm) [2]: 754 nm
- Fluorescence Maximum (nm) [2]: 783 nm
- absorption max. [2, 5]: 754 nm
- fluorescence max. [2, 5]: 783 nm
- fluorescence quantum yield [2, 5]: 10%
- Fluorescence Quantum Yield (%) [2]: 10.0%
Molecule: CC(C=CC=C1N(CCS(=O)(=O)[O-])c2ccc(S(=O)(=O)[O-])cc2C1(C)C)=CC=CC1=[N+](CCS(=O)(=O)[O-])c2ccc(S(=O)(=O)[O-])cc2C1(C)C.[Na+].[Na+].[Na+] [ZK203468, Trisodium-3,3-dimethyl-2-{4-methyl-7-[3,3-dimethyl-5-sulfonato-1-(2-sulfonatoethyl)-3H-indolium-2-yl]hepta-2,4,6-trien-1-ylidene}-1-(2-sulfonatoethyl)-2,3-dihydro-1H-indole-5-sulfonate, Inner Salt]

Molecule: Texas Red
- red shift of the absorption [3]: 2.8 nm
- red shift of the fluorescence [3]: 1.4 nm

- binding to the non-conjugated dye ZK203468 [4]: bind efficiently
B1: MOR02965: HuCAL GOLD Fab fragment binding dye ZK203468; protein SEQ-ID NO: 5 (VH-CH) and 6 (VL-CL) (antibody)
heavy: QVQLQQSGPGLVKPSQTLSLTCAISGDSVSSNSAAWSWIRQSPGRGLEWLGRIYYRSKWYNDYAVSVKSRITINPDTSKNQFSLQLNSVTPEDTAVYYCARTSFYQKLFFIAFDHWGQGTLVTVSSASTKGPSVFPLAPSSKSTSGGTAALGCLVKDYFPEPVTVSWNSGALTSGVHTFPAVLQSSGLYSLSSVVTVPSSSLGTQTYICNVNHKPSNTKVDKKVEPKSEFEQKLISEEDLNGAPWSHPQFEK
light: DIALTQPASVSGSPGQSITISCTGTSSDGGAYHYVSWYQQHPGKAPKLMIYGVIYRPSGVSNRFSGSKSGNTASLTISGLQAEDEADYYCAAWDFRKRLNVFGGGTKLTVLGQPKAAPSVTLFPPSSEELQANKATLVCLISDFYPGAVTVAWKADSSPVKAGVETTTPSKQSNNKYAASSYLSLTPEQWKSHRSYSCQVTHEGSTVEKTVAPTEA
modifications: Fab fragment of variable heavy chain; Fab fragment of variable light chain
- Absorption Maximum (nm) [2]: 799 nm
- Fluorescence Maximum (nm) [2]: 815 nm
- Fluorescence Quantum Yield (%) [2]: 13.0%
- Absorption Shift (nm) [2, 6]: 45 nm
- Fluorescence Shift (nm) [2, 6]: 32 nm
